This is an account of results in patent US9505762B2, “Purine derivatives as CB2 receptor agonists” (Hoffmann-La Roche Inc., priority 2013, dated 2016).

In one test the target is human CB2 receptors (Homo sapiens (Human), UniProt P34972). Description: functional cAMP assay, CB2. In kind it is cell-based. To be noted: CHO cells expressing human CB2.
The next test has as its target human CB1 receptors (Homo sapiens (Human), UniProt P21554). Description: functional cAMP assay, CB1. To be noted: CHO cells expressing human CB1. In kind it is cell-based. (cAMP levels reflect the balance of adenylyl cyclase and phosphodiesterase activity.)

human CB1 receptors, sequence (P21554 whole entry): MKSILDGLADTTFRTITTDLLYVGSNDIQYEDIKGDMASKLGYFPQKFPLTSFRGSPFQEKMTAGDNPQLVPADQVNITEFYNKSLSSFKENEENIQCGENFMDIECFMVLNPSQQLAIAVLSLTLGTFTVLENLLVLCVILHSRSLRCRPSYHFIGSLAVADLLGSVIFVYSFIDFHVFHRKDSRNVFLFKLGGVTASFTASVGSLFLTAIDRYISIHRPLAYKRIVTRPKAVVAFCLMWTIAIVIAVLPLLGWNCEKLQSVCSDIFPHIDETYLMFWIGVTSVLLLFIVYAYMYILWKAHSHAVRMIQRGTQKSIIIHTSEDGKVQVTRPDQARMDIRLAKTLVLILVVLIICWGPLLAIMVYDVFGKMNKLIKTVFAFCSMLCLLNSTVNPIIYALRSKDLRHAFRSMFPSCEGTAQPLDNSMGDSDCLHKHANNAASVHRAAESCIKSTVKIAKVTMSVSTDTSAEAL
human CB2 receptors, sequence (P34972 whole entry): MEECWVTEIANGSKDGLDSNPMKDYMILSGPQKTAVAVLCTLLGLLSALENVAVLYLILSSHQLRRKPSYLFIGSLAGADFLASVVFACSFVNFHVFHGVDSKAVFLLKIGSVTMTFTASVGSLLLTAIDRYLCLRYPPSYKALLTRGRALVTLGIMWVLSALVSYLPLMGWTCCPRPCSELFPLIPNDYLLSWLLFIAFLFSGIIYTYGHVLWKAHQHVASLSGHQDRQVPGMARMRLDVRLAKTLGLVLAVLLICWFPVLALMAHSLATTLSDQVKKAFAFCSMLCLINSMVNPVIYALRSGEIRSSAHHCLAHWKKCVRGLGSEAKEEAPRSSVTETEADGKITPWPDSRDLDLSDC

`CC(C)n1nnnc1Cn1cnc2c(N3CC[C@H](O)C3)nc(C(C)(C)C)nc21` [Example 155, (3S)-1-[2-tert-butyl-9-[(1-propan-2-yltetrazol-5-yl)methyl]purin-6-yl]pyrrolidin-3-ol]: the figures for the EC50 on human CB2 receptors and at human CB1 receptors were 82.3 nM and > 10 µM, respectively.

Take `CC(C)(C)c1nc(N2CCC[C@@H]2CO)c2ncn(Cc3ncccc3Cl)c2n1` [Example 157, [(2R)-1-[2-tert-Butyl-9-[(3-chloropyridin-2-yl)methyl]purin-6-yl]pyrrolidin-2-yl]methanol]: the figures for the EC50 at human CB2 receptors and at human CB1 receptors were 4.3 nM and > 10 µM, respectively.

For the compound `CC1(O)CCN(c2nc(C(C)(C)C)nc3c2ncn3Cc2ncccc2Cl)C1` (stereo not drawn) [Example 69, 1-[2-tert-butyl-9-[(3-chloropyridin-2-yl)methyl]purin-6-yl]-3-methylpyrrolidin-3-ol], the results for the EC50 on human CB2 receptors and at human CB1 receptors were 46.8 nM and > 10 µM, respectively.

As to `CC(C)(C)c1nc(N2CC[C@H](O)C2)c2ncn(Cc3c[nH]nc3C(F)(F)F)c2n1` [Example 98, (3S)-1-[2-tert-butyl-9-[[3-(trifluoromethyl)-1H-pyrazol-4-yl]methyl]purin-6-yl]pyrrolidin-3-ol], the concentration for a half-maximal effect (EC50) was 22.3 nM on human CB2 receptors and > 10 µM on human CB1 receptors.

`Cc1nonc1Cn1cnc2c(N3CCC(F)(F)C3)nc(NC(C)(C)C)nc21` [Example 111, N-tert-butyl-6-(3,3-difluoropyrrolidin-1-yl)-9-[(4-methyl-1,2,5-oxadiazol-3-yl)methyl]purin-2-amine]: the EC50 at human CB2 receptors is 14.7 nM; at human CB1 receptors, > 10 µM.

For `Cc1nonc1Cn1cnc2c(N3CCC(C)(O)C3)nc(NC(C)(C)C)nc21` (stereo not drawn) [Example 123, 1-[2-(tert-butylamino)-9-[(4-methyl-1,2,5-oxadiazol-3-yl)methyl]purin-6-yl]-3-methylpyrrolidin-3-ol], the results for the EC50 at human CB2 receptors and at human CB1 receptors were 563 nM and > 10 µM, respectively.

With `CC(=O)N[C@H]1CCN(c2nc(C(C)(C)C)nc3c2ncn3Cc2cccnc2Cl)C1` [Example 53, N—[(S)-1-[2-tert-butyl-9-[(2-chloropyridin-3-yl)methyl]purin-6-yl]pyrrolidin-3-yl]acetamide], the results for the EC50 at human CB2 receptors and on human CB1 receptors were 175 nM and > 10 µM, respectively.

Take `Cc1nonc1Cn1cnc2c(N3CC4(COC4)C3)nc(C(C)(C)C)nc21` [Example 149, 6-[2-tert-butyl-9-[(4-methyl-1,2,5-oxadiazol-3-yl)methyl]purin-6-yl]-2-oxa-6-azaspiro[3.3]heptane]: the EC50 was 185 nM at human CB2 receptors and > 10 µM at human CB1 receptors.

Consider `CC(C)(C)c1nc(N2CCC(O)C2)c2ncn(CC(=O)c3ccccc3Cl)c2n1` (stereo not drawn) [Example 47, 2-[2-tert-butyl-6-(3-hydroxypyrrolidin-1-yl)purin-9-yl]-1-(2-chlorophenyl)ethanone], for which the EC50 at human CB2 receptors is 102 nM; at human CB1 receptors, > 10 µM.

As for `Cc1nonc1Cn1cnc2c(N3CC[C@H](O)C3)nc(NC(C)(C)C)nc21` [Example 119, (3S)-1-[2-(tert-butylamino)-9-[(4-methyl-1,2,5-oxadiazol-3-yl)methyl]purin-6-yl]pyrrolidin-3-ol], the EC50 is 149 nM at human CB2 receptors and > 10 µM at human CB1 receptors.

Consider `CC(C)(C)c1nc(N2CCC(F)(F)C2)c2ncn(C3CS(=O)(=O)C3)c2n1` [Example 27, 3-[2-tert-butyl-6-(3,3-difluoropyrrolidin-1-yl)purin-9-yl]thietane 1,1-dioxide], for which the values for the EC50 on human CB2 receptors and on human CB1 receptors were 14.1 nM and > 10 µM, respectively.

Turning to `Cc1ccc(Cn2cnc3c(N4CCC(O)C4)nc(C(C)(C)C)nc32)cc1` (stereo not drawn) [Example 39, 1-[2-tert-butyl-9-[(4-methylphenyl)methyl]purin-6-yl]pyrrolidin-3-ol], the results for the EC50 on human CB2 receptors and at human CB1 receptors were 16.9 nM and > 10 µM, respectively.

With `CC(C)(C)c1nc(N2CCC3(COC3)C2)c2ncn(Cc3c[nH]nc3C(F)(F)F)c2n1` [Example 76, 7-[2-tert-butyl-9-[[3-(trifluoromethyl)-1H-pyrazol-4-yl]methyl]purin-6-yl]-2-oxa-7-azaspiro[3.4]octane], the EC50 at human CB2 receptors is 153 nM; at human CB1 receptors, > 10 µM.

With `CC(C)(C)COc1nc(N2CCC(F)(F)C2)c2ncn(Cc3ccccc3C(F)(F)F)c2n1` [Example 125, 6-(3,3-difluoropyrrolidin-1-yl)-2-(2,2-dimethylpropoxy)-9-[[2-(trifluoromethyl)phenyl]methyl]purine], the EC50 on human CB2 receptors was 2.6 nM; at human CB1 receptors it was > 10 µM.

Regarding `CC(C)(C)Nc1nc(N2CCC(F)(F)C2)c2ncn(Cc3ccccc3C(F)(F)F)c2n1` [Example 108, N-tert-butyl-6-(3,3-difluoropyrrolidin-1-yl)-9-[[2-(trifluoromethyl)phenyl]methyl]purin-2-amine], the EC50 was 6.7 nM on human CB2 receptors and > 10 µM at human CB1 receptors.

Turning to `Cn1nnnc1Cn1cnc2c(N3CCC(F)(F)C3)nc(OCC(C)(C)C)nc21` [Example 129, 6-(3,3-difluoropyrrolidin-1-yl)-2-(2,2-dimethylpropoxy)-9-[(1-methyltetrazol-5-yl)methyl]purine], the EC50 on human CB2 receptors is 95.6 nM; at human CB1 receptors it was > 10 µM.

In the case of `CC(C)(C)c1nc(N2CCC3(COC3)C2)c2ncn(Cc3ncccc3Cl)c2n1` [Example 104, 7-[2-tert-butyl-9-[(3-chloropyridin-2-yl)methyl]purin-6-yl]-2-oxa-7-azaspiro[3.4]octane], the EC50 at human CB2 receptors was 160 nM; at human CB1 receptors it was > 10 µM.

As to `CC1(O)CCN(c2nc(C(C)(C)C)nc3c2ncn3Cc2cccnc2Cl)C1` (stereo not drawn) [Example 68, 1-[2-tert-butyl-9-[(2-chloropyridin-3-yl)methyl]purin-6-yl]-3-methylpyrrolidin-3-ol], the EC50 is 24.8 nM on human CB2 receptors and > 10 µM on human CB1 receptors.

In the case of `CC(C)(C)c1nc(N2CCC3(COC3)C2)c2ncn(Cc3cccnc3Cl)c2n1` [Example 61, 7-[2-tert-butyl-9-[(2-chloropyridin-3-yl)methyl]purin-6-yl]-2-oxa-7-azaspiro[3.4]octane], the EC50 is 29.6 nM at human CB2 receptors and > 10 µM at human CB1 receptors.

For the compound `CC(C)(C)COc1nc(N2CCC(F)(F)C2)c2ncn(Cc3ccccc3Cl)c2n1` [Example 124, 9-[(2-chlorophenyl)methyl]-6-(3,3-difluoropyrrolidin-1-yl)-2-(2,2-dimethylpropoxy) purine], the EC50 is 2.7 nM at human CB2 receptors and > 10 µM at human CB1 receptors.

`Cc1noc(Cn2cnc3c(N4CC[C@H](O)C4)nc(C(C)(C)C)nc32)n1` [Example 101, (3S)-1-[2-tert-butyl-9-[(3-methyl-1,2,4-oxadiazol-5-yl)methyl]purin-6-yl]pyrrolidin-3-ol]: the EC50 on human CB2 receptors is 370 nM; on human CB1 receptors, > 10 µM.

For `Cn1nnnc1Cn1cnc2c(N3CCC(O)C3)nc(C(C)(C)C)nc21` (stereo not drawn) [Example 30, 1-[2-tert-butyl-9-[(1-methyltetrazol-5-yl)methyl]purin-6-yl]pyrrolidin-3-ol], the EC50 on human CB2 receptors was 301 nM; at human CB1 receptors, > 10 µM.

With `CC(C)(C)c1nc(N2CCC3(C2)CC3(F)F)c2ncn(Cc3ncccc3Cl)c2n1` (stereo not drawn) [Example 168, 2-tert-butyl-9-[(3-chloropyridin-2-yl)methyl]-6-(2,2-difluoro-5-azaspiro[2.4]heptan-5-yl)purine], the values for the EC50 on human CB2 receptors and at human CB1 receptors were 32.4 nM and > 10 µM, respectively.

Consider `CC(C)(C)c1nc(N2CCC(F)(F)C2)c2ncn(Cc3ncccc3Cl)c2n1` [Example 21, 2-tert-butyl-9-[(3-chloropyridin-2-yl)methyl]-6-(3,3-difluoropyrrolidin-1-yl)purine], for which the figures for the EC50 on human CB2 receptors and on human CB1 receptors were 2.2 nM and > 10 µM, respectively.

Turning to `CC(C)(C)COc1nc(N2CCC(C)(O)C2)c2ncn(Cc3ccccc3S(C)(=O)=O)c2n1` (stereo not drawn) [Example 133, 1-[2-(2,2-dimethylpropoxy)-9-[(2-methylsulfonylphenyl)methyl]purin-6-yl]-3-methylpyrrolidin-3-ol], the EC50 on human CB2 receptors is 149 nM; on human CB1 receptors it was > 10 µM.

Consider `CC(C)(C)Nc1nc(N2CC[C@H](O)C2)c2ncn(Cc3ncccc3Cl)c2n1` [Example 118, (3S)-1-[2-(tert-butylamino)-9-[(3-chloropyridin-2-yl)methyl]purin-6-yl]pyrrolidin-3-ol], for which the EC50 was 152 nM on human CB2 receptors and > 10 µM at human CB1 receptors.

In the case of `CC(C)(C)c1nc(N2CCC(O)C2)c2ncn(Cc3ccc(F)cc3Cl)c2n1` (stereo not drawn) [Example 42, 1-[2-tert-butyl-9-[(2-chloro-4-fluorophenyl)methyl]purin-6-yl]pyrrolidin-3-ol], the EC50 was 3.7 nM on human CB2 receptors and > 10 µM on human CB1 receptors.

`CC1(O)CCN(c2nc(C(C)(C)C)nc3c2ncn3Cc2ccccc2Cl)C1` (stereo not drawn) [Example 64, 1-[2-tert-butyl-9-[(2-chlorophenyl)methyl]purin-6-yl]-3-methylpyrrolidin-3-ol]: the EC50 on human CB2 receptors is 13.4 nM; on human CB1 receptors, > 10 µM.

Take `CC(C)(C)c1nc(N2CCC3(COC3)C2)c2ncn(CCC(F)(F)F)c2n1` [Example 89, 7-[2-tert-butyl-9-(3,3,3-trifluoropropyl)purin-6-yl]-2-oxa-7-azaspiro[3.4]octane]: the EC50 was 573 nM on human CB2 receptors and > 10 µM at human CB1 receptors.

Consider `Cc1nonc1Cn1cnc2c(N3CCC(C)(O)C3)nc(OCC(C)(C)C)nc21` (stereo not drawn) [Example 135, 1-[2-(2,2-dimethylpropoxy)-9-[(4-methyl-1,2,5-oxadiazol-3-yl)methyl]purin-6-yl]-3-methylpyrrolidin-3-ol], for which the EC50 was 30.7 nM on human CB2 receptors and > 10 µM on human CB1 receptors.

As for `CC(C)(C)c1nc(N2CC[C@H](O)C2)c2ncn(Cc3ccccc3Cl)c2n1` [Example 97, (3S)-1-[2-tert-butyl-9-[(2-chlorophenyl)methyl]purin-6-yl]pyrrolidin-3-ol], the EC50 on human CB2 receptors is 1.8 nM; on human CB1 receptors, > 10 µM.

Consider `CC(=O)N[C@H]1CCN(c2nc(C(C)(C)C)nc3c2ncn3CCC(F)(F)F)C1` [Example 103, N-[(3S)-1-[2-tert-butyl-9-(3,3,3-trifluoropropyl)purin-6-yl]pyrrolidin-3-yl]acetamide], for which the EC50 at human CB2 receptors is 211 nM; on human CB1 receptors, > 10 µM.

`CC(C)(C)Nc1nc(N2CC[C@H](O)C2)c2ncn(Cc3ccccc3Cl)c2n1` [Example 116, (3S)-1-[2-(tert-butylamino)-9-[(2-chlorophenyl)methyl]purin-6-yl]pyrrolidin-3-ol]: the EC50 at human CB2 receptors is 12.1 nM; at human CB1 receptors, > 10 µM.

By EC50 is commonly meant the concentration needed to bring the measured effect to its halfway point. High values mean a less potent agent, low ones a more potent agent.
